# Assay results: patent USRE38169E1, “Hyperstabilizing antisense nucleic acid binding agents” (priority 1993, dated 2003)
# Columns and labels:
# [1] = tested on: DNA sense (SEQ ID NO. 1) / DNA-MP antisense duplex (PO-MP); assay: Duplex strand separation temperature (Tm); type: binding, equine infectious anemia retrovirus
# Procedure: (§1) Samples for determining Tm were also obtained by the above procedures. […] Thus the effects of this agent on Tm were carried out with Distamycin in solution with the duplexes tested.
# (§2) Tm's were determined on a Gilford 2400 Spectrophotometer set at 260 nm, with a 4-chamber Peltier-based temperature controller. Temperature was ramped linearly at 0.5° C./min. Absorbance data were acquired with a 12-bit A/D converter, and data were processed with Lotus 123W and SigmaPlot software. Tm values were determined from the plots as the midpoint of the thermal transitions.
# [2] = tested on: DNA sense (SEQ ID NO. 1) / DNA-PO antisense duplex (PO-PO); assay: Duplex strand separation temperature (Tm); type: binding, equine infectious anemia retrovirus
# Procedure: as §1, §2
# [3] = tested on: DNA sense (SEQ ID NO. 1) / DNA-PS antisense duplex; assay: Duplex strand separation temperature (Tm); type: binding, equine infectious anemia retrovirus
# Procedure: as §1, §2
# [4] = tested on: RNA sense / DNA-PS antisense duplex; assay: Binding of drug to duplex (NACS column); parameters: species or system equine infectious anemia retrovirus; settings: saturation; initial CC-1065/nucleotide 0.1; 37° C., 4 hr
# Procedure: (§3) Oligodeoxyribonucleotides were obtained by chemical synthesis through standard techniques on an automated synthesizer located in the Department of Veterinary Microbiology and Parasitology at Louisiana State University. Antisense MP and PS oligonucleotides were obtained from commercial sources, as was synthetic sense RNA. Poly(rA) was obtained from Sigma Chemical Co. CC-1065 was obtained from the Upjohn Company. Oligonucleotides (0.075 μmol-P each) were mixed in 0.36 ml 0.01 M Na cacodylate buffer, pH 7.2, with CC-1065 in dimethyl formamide (0.04 ml), or with dimethylformamide only. (Note that “μmol-P” denotes μmoles of phosphate; i.e., μmoles of nucleotide bases, rather than of oligonucleotides per se.) Incubations of complementary strands, with or without drug, were carried out at 37° C. for 4 hr. In the initial experiments, unbound drug was separated from nucleotide duplexes by ethanol precipitation. Equivalent results were obtained by trapping the oligonucleotides and CC-1065 on NACS-52 columns, and washing first with low-salt buffer and then with buffer containing 1M NaCl. […] Samples prepared in this manner could be directly used for determination of binding of the drug to the nucleic acid (as measured by the A365/A260 ratio), with the extinction of CC-1065 absorbance at 365 nm taken as 48,000, and the extinction of the nucleic acid absorption at 260 nm based on its composition. […]
# [5] = tested on: RNA sense / DNA-PO antisense duplex; assay: Binding of drug to duplex (NACS column); parameters: species or system equine infectious anemia retrovirus; settings: saturation; initial CC-1065/nucleotide 0.1; 37° C., 4 hr
# Procedure: as §3
# Salmon Sperm DNA = assay: Binding of drug to duplex (NACS column); settings: saturation; initial CC-1065/nucleotide 0.1; 37° C., 4 hr
# Procedure: as §3
# calf thymus DNA = settings: reported, cited from earlier work
# [6] = tested on: DNA sense (SEQ ID NO. 1) / DNA-PO antisense (SEQ ID NO. 2) duplex (PO-PO); assay: Binding of drug to duplex (NACS column, A365/A260); parameters: species or system equine infectious anemia retrovirus; settings: for Final D/N (CC-1065/nucleotide) Bound to Duplex: PO-PO
# Procedure: Oligodeoxyribonucleotides were obtained by chemical synthesis through standard techniques on an automated synthesizer located in the Department of Veterinary Microbiology and Parasitology at Louisiana State University. Antisense MP and PS oligonucleotides were obtained from commercial sources, as was synthetic sense RNA. Poly(rA) was obtained from Sigma Chemical Co. CC-1065 was obtained from the Upjohn Company. Oligonucleotides (0.075 μmol-P each) were mixed in 0.36 ml 0.01 M Na cacodylate buffer, pH 7.2, with CC-1065 in dimethyl formamide (0.04 ml), or with dimethylformamide only. (Note that “μmol-P” denotes μmoles of phosphate; i.e., μmoles of nucleotide bases, rather than of oligonucleotides per se.) Incubations of complementary strands, with or without drug, were carried out at 37° C. for 4 hr. In the initial experiments, unbound drug was separated from nucleotide duplexes by ethanol precipitation. Equivalent results were obtained by trapping the oligonucleotides and CC-1065 on NACS-52 columns, and washing first with low-salt buffer and then with buffer containing 1M NaCl. Unbound CC-1065 was completely retained on the column. […] Samples prepared in this manner could be directly used for determination of binding of the drug to the nucleic acid (as measured by the A365/A260 ratio), with the extinction of CC-1065 absorbance at 365 nm taken as 48,000, and the extinction of the nucleic acid absorption at 260 nm based on its composition. Similar approaches were used with the drug U-71,184, with an assumed extinction of 32,000 at 365 nm.
# When methyl phosphonate and synthetic RNA were used, the purities of the crude oligonucleotides were taken to be about 30%, based on the data sheet prepared by the supplier. (The remainder comprised primarily truncated sequences.) Appropriate excess amounts of these agents were included in the reactions to ensure helix formation. The corresponding sense or antisense oligonucleotides were maintained at 0.075 μmol-P in the reaction. […] Unpurified materials were used in these preliminary studies because of the relatively high cost of purified oligoribonucleotides. The majority of the contributions to A260 for these samples should be due to material that was not duplexed.
# Table 1 summarizes binding data obtained from incubations of CC-1065 with nucleotides at greater than stoichiometric levels; the levels used in these experiments were 1 drug molecule/10 nucleotide residues, which is equivalent to 4 drug molecules/20-mer duplex. […] There seemed to be no difference in drug binding between antisense oligonucleotides with a PO and those with a PS backbone. Again, the 5′-AGTTA-3′ sequence on the sense strand was presumably the primary target, and the 3′-AAGTA-5′ on the antisense probe was presumably the secondary target.
smiles,measurement,setting,value
COc1c(O)c2c(c3cc(C(=O)N4CCc5c4c(O)c(OC)c4[nH]c(C(=O)N6CC7CC78C6=CC(=O)c6[nH]cc(C)c68)cc54)[nH]c13)CCN2C(N)=O (centres unmarked) [CC-1065],Tm,[1]; CC-1065 initial D/N = 0.025,73.0 ± 2.0^4 °C
same,Tm,[1]; CC-1065 initial D/N = 0.1,74.0 ± 1.0^4 °C
same,Duplex Strand Separation Temperature,"[1]; DNA / DNA-MP, drug-bound duplex (Table 6)",74.0 ± 1.04
same,Tm Elevation,"[1]; PO-MP, highest level of binding obtained",21.5 °C
same,Tm,"[2]; CC-1065 initial D/N = 0.025, 1M NaCl eluate",81.7 ± 0.6^4 °C
same,Tm,"[2]; CC-1065 initial D/N = 0.1, minimum Tm estimate (melting not completed)","≥ 85.3 ± 2.3^4,5 °C"
same,Duplex Strand Separation Temperature,"[2]; DNA / DNA-PO, drug-bound duplex (Table 6)",≥ 85.3 ± 2.3^4
same,Tm Elevation,"[2]; PO-PO, highest level of binding obtained",17.3 °C
same,Tm,[3]; CC-1065 initial D/N = 0.025,81.3 ± 2.3^4 °C
same,Tm,"[3]; CC-1065 initial D/N = 0.1, minimum Tm estimate","≥ 84.7 ± 1.5^4,5 °C"
same,Duplex Strand Separation Temperature,"[3]; DNA / DNA-PS, drug-bound duplex (Table 6)",≥ 84.7 ± 1.5^4
same,Tm Elevation,"[3]; PS-PS, highest level of binding obtained",20.5 °C
same,Approx. No. CC-1065 Bound/20 Base Pairs,[4],~1
same,Approx. No. CC-1065 Bound/20 Base Pairs,[5],~1
same,Approx. No. CC-1065 Bound/20 Base Pairs,Salmon Sperm DNA,~2
same,Tm,calf thymus DNA; CC-1065 bound,~100 °C
same,Increase in Tm,calf thymus DNA; under the conditions of the experiment,over 30 °C
same,Final D/N (CC-1065/nucleotide) Bound to Duplex,[6]; Initial D/N 0.01,0.009 ± 0.0004
same,Final D/N (CC-1065/nucleotide) Bound to Duplex,[6]; Initial D/N 0.025,0.021 ± 0.001
same,Final D/N (CC-1065/nucleotide) Bound to Duplex,[6]; Initial D/N 0.04,0.030 ± 0.0004
same,Final D/N (CC-1065/nucleotide) Bound to Duplex,[6]; Initial D/N 0.065,0.049 ± 0.001
same,Final D/N (CC-1065/nucleotide) Bound to Duplex,[6]; Initial D/N 0.10,0.053 ± 0.002
same,Approx. No. CC-1065 Bound/20 Base Pairs,"[6]; saturation, initial CC-1065/nucleotide 0.1 (4 drug molecules per duplex), 37° C., 4 hr",~2
